Values of other authors in US4693997A, “Novel pharmaceutical composition” (priority 1982, dated 1987).
Counter-ions that a name gives are not always drawn. Like-named read-outs stand apart in the source and are kept apart here.

Tested on: mucosa in the oesophagus
Settings: oral tablets
[1] = compared with emepronium bromide tablets

Row | Structure (SMILES) | oesophageal irritation and ulceration [1] | oesophageal irritation and ulceration (Bennett, Lancet 1977, 1, 810)
1 | CC1c2cccc(O)c2C(=O)C2=C(O)C3(O)C(=O)C(C(N)=O)=C(O)C(N(C)C)C3C(O)C21 (stereo not drawn) [doxycycline hydrochloride] | same type of irritation and ulceration | –
2 | CC[N+](C)(C)C(C)CC(c1ccccc1)c1ccccc1 (stereo not drawn) [emepronium bromide] | – | severe irritation and ulceration in the oesophagus
3 | CC(C)NCC(O)COc1cccc2ccccc12 (stereo not drawn) [propranolol hydrochloride] | same type of irritation and ulceration | –
